Measured values from patent US5663197A, “2-(1-hydroxyethyl)-5-hydroxynaphtho[2,3-b]furan-4,9-dione and antitumor agents comprising this compound” (priority 1992, dated 1997).
≈ marks a conversion by molar mass, not a printed value.

Legend:
[1] = tested on: Human renal cell carcinoma VMRC-RCW cells; test: In vitro antitumor test (trypan blue exclusion viable cell count), VMRC-RCW; format: cell-based
Description: (§1) An appropriate amount of NFD was dissolved in DMSO to give a 1.0 mg/ml stock solution, which was diluted as necessary before use.
(§2) The following cells in the late logarithmic phase were harvested after treatment with trypsin (containing 0.25% trypsin and 0.02% EDTA; 37° C., 3 min) and used in the test: human lung adenocarcinoma cell lines A-549, VMRC-LCD and SK-LU-1, human lung squamous cell carcinoma Calu-1 cells, human colon adenocarcinoma WiDr cells, human prostate cancer LNCaP cells, human vaginal squamous cell carcinoma A-431 cells, human cervical carcinoma HeLa cells, human cholangiocarcinoma HuCC-T1 cells, mouse skin cancer melanoma B16 (M4) cells, human pancreatic carcinoma ASPC-1 cells, human neuroblastoma IMR-132 cells, human lung small cell carcinoma SCCH-194 cells, human uninary bladder carcinoma T24 cells, human renal cell carcinoma […] cells, human gastric cancer NUGC-2 cells, human thyroid carcinoma 8305C cells, human hepatoma HUH-7 cells, human ovarian carcinoma TYK-nu cells and human chorio carcinoma BeWo cells. Suspension cultures of human breast cancer MRK-nu-1 cells, human malignant B-cell lymphoma cells and human chronic myelogenous leukemia K562 cells were used to harvest the cells to be used in the test. […] These cells were plated onto a 96-well microplate at a density of 5-10×10^3 cells/cm^2 using DMEM or RPMI-1640 medium containing 10% fetal bovine serum and cultured for 24 hours in a conventional manner, after which a pre-determined amount of NFD dissolved in DMSO was added to each well. Cultivation was continued, and the number of viable cells was counted after 24, 48 and 72 hours. […]
Growth inhibitory action and lethal activity of NFD on various types of malignant tumor cells and normal human cells listed above were evaluated by counting the number of viable cells in each well of the 96-well microplate. […]

[2] = tested on: Human thyroid carcinoma 8305C cells; test: In vitro antitumor test (trypan blue exclusion viable cell count), 8305C; format: cell-based
Description: as §1
as §2, with “cells.” for “cells. Suspension cultures of human breast cancer MRK-nu-1 cells, human malignant B-cell lymphoma cells and human chronic myelogenous leukemia K562 cells were used to harvest the cells to be used in the test.”, “well.” for “well. Cultivation was continued, and the number of viable cells was counted after 24, 48 and 72 hours.”

lung adenomas in mice = test: Inhibition of two-step carcinogenesis in mouse lungs; format: in vivo, mouse (female ICR)
Description: Female ICR mice were used as test animals. Fifteen mice were housed in a cage and provided with the pellet diet and drinking water ad libitum. After one week of preliminary rearing, the six-week-old mice were given in the back a subcutaneous injection of 10 mg/kg body weight of 4-nitroquinoline-N-oxide (4NQO) dissolved in a mixture of olive oil and cholesterol (20:1). From five weeks after initiation, the mice were allowed to orally take 8% glycerol ad libitum as a carcinogenic promoter. The mice which received 4 NQO and 8% glycerol for 25 weeks served as a positive control. On the other hand, the mice in the test group were given ad libitum 8% glycerol containing 0.1 ng/ml of NFD for 25 weeks. Thirty weeks after the onset of the experiment, the mice were killed by cervical dislocation, and the lungs were removed after fixation with formalin under autopsy. Under a stereomicroscope, the adenomas formed in the lung were observed, and the number of adenomas was determined. The numbers were compared between the positive control and NFD-administered groups.

[3] = tested on: Human chorio carcinoma BeWo cells; test: In vitro antitumor test (trypan blue exclusion viable cell count), BeWo; format: cell-based
Description: as §1
as §2, with “cells.” for “cells. Suspension cultures of human breast cancer MRK-nu-1 cells, human malignant B-cell lymphoma cells and human chronic myelogenous leukemia K562 cells were used to harvest the cells to be used in the test.”, “well.” for “well. Cultivation was continued, and the number of viable cells was counted after 24, 48 and 72 hours.”

[4] = tested on: Human lung small cell carcinoma SCCH-194 cells; test: In vitro antitumor test (trypan blue exclusion viable cell count), SCCH-194; format: cell-based
Description: as §1
as §2, with “cells.” for “cells. Suspension cultures of human breast cancer MRK-nu-1 cells, human malignant B-cell lymphoma cells and human chronic myelogenous leukemia K562 cells were used to harvest the cells to be used in the test.”, “well.” for “well. Cultivation was continued, and the number of viable cells was counted after 24, 48 and 72 hours.”

[5] = tested on: Normal human tracheal epithelial cells; test: In vitro growth test on normal cells, tracheal epithelial cells; format: cell-based
Description: as §1
as §2, with “cells.” for “cells. Suspension cultures of human breast cancer MRK-nu-1 cells, human malignant B-cell lymphoma cells and human chronic myelogenous leukemia K562 cells were used to harvest the cells to be used in the test.”, “well.” for “well. Cultivation was continued, and the number of viable cells was counted after 24, 48 and 72 hours.”

[6] = tested on: Human breast cancer MRK-nu-1 cells; test: In vitro antitumor test (trypan blue exclusion viable cell count), MRK-nu-1; format: cell-based
Description: as §1
as §2, with “cells.” for “cells. Suspension cultures of human breast cancer MRK-nu-1 cells, human malignant B-cell lymphoma cells and human chronic myelogenous leukemia K562 cells were used to harvest the cells to be used in the test.”, “well.” for “well. Cultivation was continued, and the number of viable cells was counted after 24, 48 and 72 hours.”

[7] = General toxicology in ICR mice; conditions: mouse, in vivo, ICR mice (male)
[8] = 72 h, three days exposure, read-out: LD50 (IC50), 50% growth-inhibitory dose

In the case of CC(O)c1cc2c(o1)C(=O)c1cccc(O)c1C2=O (centres unmarked) [NFD, 2-(1-hydroxyethyl)-5-hydroxynaphtho[2,3-b]furan-4,9-dione], the “concentration causing necrosis in almost all tumor cells” value ([1]; FIG. 17) is reported as 50 ng/mL, the IC50 ([1]; Homo sapiens, 72 h, VMRC-RCW, three days exposure, read-out: LD50 (IC50), 50% growth-inhibitory dose) is reported as 0.019 µg/mL (≈ 0.0736 µM) and the IC (almost complete) ([1]; Homo sapiens, FIG. 17, read-out: concentration inhibiting growth almost completely) is reported as 0.017 µg/mL. For the same compound, the IC50 [2, 8] was 0.025 µg/mL (≈ 0.0968 µM), the IC (almost complete) ([2]; FIG. 19, read-out: concentration inhibiting growth almost completely) was 0.028 µg/mL and the “inhibition of adenoma formation in the lung” value (lung adenomas in mice; 0.1 ng/ml NFD in 8% glycerol, versus positive control) was “significant inhibition”. For the same compound, the “expression percentage of lung adenomas, lower than that in the positive control group” value (lung adenomas in mice; 30th week after onset, versus 4NQO + 8% glycerol group) was 1/3, the IC50 [3, 8] was 0.018 µg/mL (≈ 0.0697 µM) and the IC (almost complete) ([3]; FIG. 23, read-out: concentration inhibiting growth almost completely) was 0.0343 µg/mL. The IC50 ([4]; 72 h, SCCH-194, three days exposure, read-out: LD50 (IC50), 50% growth-inhibitory dose) was 0.01 µg/mL (≈ 0.0387 µM), the IC (almost complete) ([4]; FIG. 15, read-out: concentration inhibiting growth almost completely) was 0.03 µg/mL and the “adverse effects on growth of normal cells” value ([5]; FIG. 25, at concentrations which cause necrosis in tumor cells) was “no adverse effects”. For the same compound, the IC50 ([5]; Homo sapiens, Epithelial cell, 72 h, normal tracheal epithelial cells, three days exposure, read-out: LD50 (IC50), 50% growth-inhibitory dose) was greater than 0.055 µg/mL, the IC50 [6, 8] was 0.012 µg/mL (≈ 0.0465 µM) and the IC (almost complete) ([6]; FIG. 20, read-out: concentration inhibiting growth almost completely) was 0.033 µg/mL. For the same compound, the LD50 ([7]; ip, intraperitoneally) was 7.3 mg/kg and the LD50 ([7]; po, orally) was 8.4 mg/kg.
